The source made the active and inactive calls.
What was measured:
SUMO E1/E2 = SUMO E1/E2 (Homo sapiens, UniProt P63279+Q9UBE0+Q9UBT2); test: SAR analysis of SUMOylation using HTRF in an in-Vitro dose response assay. [Related pubchem assays (depositor defined):AID2006, AID2011, AID2018, AID2069, AID2658]; format: functional
[1] = molecular target: T1, Mannose-6-phosphate isomerase (Homo sapiens, UniProt P34949); test: human PMI inhibitors, high substrate, primary screen, biochemical, fluorescence intensity, high mannose 6-phosphate (AID 1220)
T1 sequence (P34949 whole entry): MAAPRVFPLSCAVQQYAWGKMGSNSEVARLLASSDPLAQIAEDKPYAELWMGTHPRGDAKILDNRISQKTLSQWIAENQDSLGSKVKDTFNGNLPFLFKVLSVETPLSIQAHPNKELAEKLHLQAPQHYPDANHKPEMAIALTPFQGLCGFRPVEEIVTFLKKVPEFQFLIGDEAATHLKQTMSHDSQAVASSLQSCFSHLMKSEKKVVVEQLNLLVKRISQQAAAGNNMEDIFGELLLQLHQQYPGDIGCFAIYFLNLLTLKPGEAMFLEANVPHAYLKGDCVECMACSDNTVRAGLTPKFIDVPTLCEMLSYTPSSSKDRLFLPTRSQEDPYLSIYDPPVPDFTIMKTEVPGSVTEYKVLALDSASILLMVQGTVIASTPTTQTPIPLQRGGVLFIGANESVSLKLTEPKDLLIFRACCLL

[2] = molecular target: T1, Mannose-6-phosphate isomerase; test: PMI enzyme inhibitors, confirmation, biochemical, fluorescence intensity (AID 1535)
[3] = molecular target: DNA dC->dU-editing enzyme APOBEC-3G (Homo sapiens, UniProt Q9HC16); test: Dose Response confirmation of small molecule APOBEC3G DNA Deaminase Inhibitors via a fluorescence-based single-stranded DNA deaminase assay. [Related pubchem assays (depositor defined):AID493012, AID493028]; format: functional
Chain of DNA dC->dU-editing enzyme APOBEC-3G (Q9HC16 whole entry): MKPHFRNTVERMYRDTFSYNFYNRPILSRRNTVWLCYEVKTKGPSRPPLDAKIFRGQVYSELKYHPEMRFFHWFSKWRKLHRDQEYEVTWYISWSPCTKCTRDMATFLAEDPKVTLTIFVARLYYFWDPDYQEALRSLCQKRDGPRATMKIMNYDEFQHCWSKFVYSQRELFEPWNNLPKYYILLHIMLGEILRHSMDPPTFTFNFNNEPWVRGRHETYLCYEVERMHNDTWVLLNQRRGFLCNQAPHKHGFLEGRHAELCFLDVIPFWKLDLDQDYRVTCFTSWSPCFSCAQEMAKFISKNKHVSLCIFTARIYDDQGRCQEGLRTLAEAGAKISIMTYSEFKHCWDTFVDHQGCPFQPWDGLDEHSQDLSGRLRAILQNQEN

Phosphomannomutase 2 = Phosphomannomutase 2 (Homo sapiens, UniProt O15305); test: Counter screen SAR assay for PMM2 inhibitors via a fluorescence intensity assay. [Related pubchem assays (depositor defined):AID1545, AID1574]
Chain of Phosphomannomutase 2 (O15305 whole entry): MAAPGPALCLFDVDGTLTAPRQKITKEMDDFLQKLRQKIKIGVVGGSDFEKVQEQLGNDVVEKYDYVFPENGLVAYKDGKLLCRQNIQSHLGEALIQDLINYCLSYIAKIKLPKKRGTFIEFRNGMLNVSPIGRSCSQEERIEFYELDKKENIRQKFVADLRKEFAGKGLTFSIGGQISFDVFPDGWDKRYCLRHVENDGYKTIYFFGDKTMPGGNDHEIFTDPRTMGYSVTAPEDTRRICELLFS

[4] = molecular target: DNA dC->dU-editing enzyme APOBEC-3A (Homo sapiens, UniProt P31941); test: APOBEC3A DNA deaminase inhibitors, dose response, biochemical (AID 504722); format: functional
Chain of DNA dC->dU-editing enzyme APOBEC-3A (P31941 whole entry): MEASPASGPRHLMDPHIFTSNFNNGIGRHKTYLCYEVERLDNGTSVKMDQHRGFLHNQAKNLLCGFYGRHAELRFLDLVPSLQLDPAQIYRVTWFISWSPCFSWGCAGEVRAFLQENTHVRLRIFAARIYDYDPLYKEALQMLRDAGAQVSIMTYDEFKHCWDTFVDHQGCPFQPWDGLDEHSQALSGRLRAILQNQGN

[5] = molecular target: Lysine-specific demethylase 4C (Homo sapiens, UniProt Q9H3R0); test: GASC-1 (JMJD2C) histone demethylase inhibitors, dose response, biochemical, DELFIA europium, cherry-picked samples (AID 488835); format: functional
Chain of Lysine-specific demethylase 4C (Q9H3R0 whole entry): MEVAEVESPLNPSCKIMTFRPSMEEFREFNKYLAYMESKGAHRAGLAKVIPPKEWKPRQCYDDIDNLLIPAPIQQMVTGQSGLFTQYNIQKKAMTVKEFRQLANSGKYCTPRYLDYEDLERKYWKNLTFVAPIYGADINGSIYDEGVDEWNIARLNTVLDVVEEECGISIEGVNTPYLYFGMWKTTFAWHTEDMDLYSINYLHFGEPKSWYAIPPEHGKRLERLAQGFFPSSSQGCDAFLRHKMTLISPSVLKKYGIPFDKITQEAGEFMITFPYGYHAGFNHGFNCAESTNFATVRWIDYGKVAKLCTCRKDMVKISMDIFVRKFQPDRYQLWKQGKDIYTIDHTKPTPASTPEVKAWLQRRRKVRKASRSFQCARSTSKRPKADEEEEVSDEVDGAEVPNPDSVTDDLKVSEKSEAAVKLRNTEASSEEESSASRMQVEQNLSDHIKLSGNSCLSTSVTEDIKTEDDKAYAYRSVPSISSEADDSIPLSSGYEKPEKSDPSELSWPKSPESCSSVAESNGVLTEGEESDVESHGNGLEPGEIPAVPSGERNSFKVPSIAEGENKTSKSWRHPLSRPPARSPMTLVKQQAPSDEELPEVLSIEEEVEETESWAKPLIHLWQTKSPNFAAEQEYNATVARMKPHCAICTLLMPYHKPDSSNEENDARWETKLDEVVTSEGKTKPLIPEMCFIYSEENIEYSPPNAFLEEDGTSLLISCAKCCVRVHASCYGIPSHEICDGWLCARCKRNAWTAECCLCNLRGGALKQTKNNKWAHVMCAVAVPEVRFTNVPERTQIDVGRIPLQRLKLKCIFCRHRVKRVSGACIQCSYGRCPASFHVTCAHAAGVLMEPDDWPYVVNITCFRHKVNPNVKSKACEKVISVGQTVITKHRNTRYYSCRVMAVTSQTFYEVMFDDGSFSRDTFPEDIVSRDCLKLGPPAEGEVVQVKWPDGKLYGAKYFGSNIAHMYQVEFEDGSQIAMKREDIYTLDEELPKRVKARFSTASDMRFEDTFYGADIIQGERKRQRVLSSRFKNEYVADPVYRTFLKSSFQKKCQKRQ

BJ [6] = test: cytotoxicity toward BJ-TERT fibroblasts, dose response, cell-based, RAS-independent, luminescence (AID 1933); format: functional; details: Homo sapiens
BJ [7] = test: cytotoxicity toward BJ-TERT-LT-ST fibroblasts, dose response, cell-based, RAS-independent, luminescence (AID 1935); format: functional; details: Homo sapiens;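 note: BJ fibroblasts immortalized with TERT plus LT and ST oncogenes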
[8] = cytotoxicity toward DRD oncogenic fibroblasts, dose response, cell-based, non-viral oncogenic, luminescence (AID 1934); format: functional; details: Homo sapiens
BJ [9] = test: cells; format: functional, cell-based; details: Homo sapiens

Chain of SUMO E1/E2 (Q9UBE0 whole entry): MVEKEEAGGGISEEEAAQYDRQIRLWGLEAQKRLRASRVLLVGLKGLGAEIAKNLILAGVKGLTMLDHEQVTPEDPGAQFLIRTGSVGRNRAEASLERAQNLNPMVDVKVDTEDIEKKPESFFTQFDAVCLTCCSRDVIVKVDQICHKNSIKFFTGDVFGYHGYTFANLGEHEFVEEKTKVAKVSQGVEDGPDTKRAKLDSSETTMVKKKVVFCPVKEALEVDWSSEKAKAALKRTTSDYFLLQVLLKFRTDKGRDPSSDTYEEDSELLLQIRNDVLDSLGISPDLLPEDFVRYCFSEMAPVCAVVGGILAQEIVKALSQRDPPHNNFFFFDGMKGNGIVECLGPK
Chain of SUMO E1/E2 (Q9UBT2 whole entry): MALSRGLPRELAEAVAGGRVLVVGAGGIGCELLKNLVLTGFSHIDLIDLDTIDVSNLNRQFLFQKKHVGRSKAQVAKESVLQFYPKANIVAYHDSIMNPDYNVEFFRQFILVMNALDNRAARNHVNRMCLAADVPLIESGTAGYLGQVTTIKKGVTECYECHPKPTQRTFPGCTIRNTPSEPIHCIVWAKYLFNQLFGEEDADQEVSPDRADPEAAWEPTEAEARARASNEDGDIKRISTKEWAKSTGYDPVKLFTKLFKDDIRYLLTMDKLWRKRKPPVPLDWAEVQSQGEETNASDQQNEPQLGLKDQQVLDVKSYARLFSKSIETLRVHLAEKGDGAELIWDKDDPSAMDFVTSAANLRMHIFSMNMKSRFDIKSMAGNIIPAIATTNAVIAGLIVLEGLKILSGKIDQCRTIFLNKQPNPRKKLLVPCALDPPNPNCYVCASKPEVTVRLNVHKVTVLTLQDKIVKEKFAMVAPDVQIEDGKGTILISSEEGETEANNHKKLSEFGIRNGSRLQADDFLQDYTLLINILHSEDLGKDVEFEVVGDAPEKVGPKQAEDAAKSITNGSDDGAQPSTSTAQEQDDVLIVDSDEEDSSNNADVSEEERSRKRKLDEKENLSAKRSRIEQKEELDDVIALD
Chain of SUMO E1/E2 (P63279 whole entry): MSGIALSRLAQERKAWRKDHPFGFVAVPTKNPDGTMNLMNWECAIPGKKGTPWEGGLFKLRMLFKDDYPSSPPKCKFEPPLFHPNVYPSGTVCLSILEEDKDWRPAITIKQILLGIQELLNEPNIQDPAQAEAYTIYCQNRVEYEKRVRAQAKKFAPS

IC50 (SUMO E1/E2) | SMILES | IC50 [1] | IC50 [2] | IC50 [3] | IC50 (Phosphomannomutase 2) | IC50 [4] | AC50 [5] | EC50 (BJ [6]) | EC50 (BJ [7]) | EC50 [8] | EC50 (BJ [9])
12.5 µM (active) | S=c1[nH]nc(-c2cc(-c3ccccc3)[nH]n2)n1N=Cc1cccc(Cl)c1 | – | – | – | – | – | – | – | – | – | –
– | N#Cc1ccc(/N=c2\ssnc2Cl)cc1 | 6.34 µM (not active) | 4.14 µM (active) | 7.33 µM (active) | > 100 µM (inactive) | > 100 µM (inactive) | 5.67 µM (active) | 6.16 µM (inconclusive) | > 150 µM (inconclusive) | 14.3 µM (active) | > 150 µM (inconclusive)
